Measurements as given in patent US9593140B2, “Antibacterial tylosin derivatives and methods for their preparation” (Bayer Intellectual Property GmbH, priority 2011, dated 2017).
Values after ≈ are worked out from the molar mass of the structure shown.

Experiments:
Type in all cases: cell-based
[1] = tested on: A. pleuropneumoniae, 6 isolates; assay: Minimal inhibitory concentrations, swine pathogen isolates
Description: (§1) The antibacterial activity by the compounds of the present invention may be measured using a number of assays available in the art. […] Minimal inhibitory concentrations (MICs) were determined against the most prevalent pathogens in cattle (Mannheimia Haemolytica, 3 isolates) and swine (A. pleuropneumoniae, 6 isolates).The results are summarized in Table 7.

[2] = tested on: Mannheimia Haemolytica, 3 isolates; assay: Minimal inhibitory concentrations, cattle pathogen isolates; settings: Mannheimia haemolytica
Description: as §1

[3] = tested on: Mannhemia hemolytica KB346; assay: Paper disc assay, M. hemolytica KB346 (Tilmicosin-low sensitivity strain)
Description: (§2) (1) Antibacterial Activities Against Mannheimia and Pasteurella were Determined by the Following Steps:
(§3) 1) M. hemolytica KB345 (Tilmicosin-sensitivity strain) and M. hemolytica KB346 (Tilmicosin-low sensitivity strain) were provided. KB 345 strain stored at −80° C. was seeded to BHIB agar medium (10 mL) by using Microbank beads (Pro-Lab) and platinum nail. After statically incubating the KB 345 strain for 24 hours at 37° C., it was seeded to maintaining slant BHIB agar medium (7 mL) by using platinum loop, further statically incubated for 24 hours at 37° C. to obtain slant. One platinum loop of KB 345 strain stored at the slant was inoculated into a large test tube charged with BHIB liquid medium (10 mL) and then incubated for 24 hours at 37° C. with shaking.
(§4) 2) A paper disc (ADVANTEC, Φ:6 mm) was impregnated with a solution of test compound and dried under reduced pressure.
(§5) 3) To a melted BHIB agar medium was inoculated 1% of the broth obtained from step 1) above to prepare a test plate. After the medium set, the paper disc prepared in step 2) above was put on the plate and it was incubated at 37° C.
(§6) 4) After one day, the inhibition zone diameter and clarity (A to E) were determined.
For KB346 strain, the same procedures were repeated.

[4] = tested on: Mannhemia hemolytica KB345; assay: Paper disc assay, M. hemolytica KB345 (Tilmicosin-sensitivity strain); settings: for zone of inhibition at 3 mg/disc / zone of inhibition at 10 mg/disc / zone of inhibition at 30 mg/disc / zone of inhibition at 100 mg/disc / zone of inhibition at 1 mg/disc: 24 h; for zone of inhibition at 1 mg/disc: 1 mg/6 mm disk
Description: as §2, §3, §4, §5, §6

[5] = tested on: Micrococcus luteus ATCC9341; assay: Paper disc assay, Micrococcus luteus (l)
Description: (§7) (2) Antibacterial activities against other bacteria were determined with Micrococcus luteus ATCC9341 (1), Bacillus subtilis […] (s), Escherichia coli NIHJ (c), Xanthomonas campestris KB88 (X), Mucor racemosus IFO 4581 (Mu) and Candida albicans ATCC 64548 (Ca).
(§8) Bacillus subtilis ATCC6633 was incubated in Davis synthetic medium and then the seed broth was combined with the medium in the ratio of 1:99 to obtain a test plate. Micrococcus luteus ATCC9341, Escherichia coli NIHJ and Xanthomonas campestris KB88 were respectively incubated in Nutrient agar medium and inoculated at 0.2%, 0.5% and 1.0%. Mucor racemosus IFO 4581 and Candida albicans ATCC 64548 were respectively incubated in GY agar medium and then inoculated at 0.3% and 0.2%.
(§9) A paper disc (ADVANTEC, Φ:6 mm) was impregnated with a solution of test compound and dried under reduced pressure. The paper disc was put on the test plate and it was incubated for 24 hours at 37° C. After incubation, the inhibition zone diameter and clarity (A to E) were determined.

[6] = tested on: Bacillus subtilis ATCC6633; assay: Paper disc assay, Bacillus subtilis (S)
Description: as §7, §8, §9

[7] = tested on: Xanthomonas campestris KB88; assay: Paper disc assay, Xanthomonas campestris (X)
Description: as §7, §8, §9

Row | Compound | Inhibition zone (mm) ([5]; 0.1 mg/6 mm disc) | Inhibition zone (mm) ([5]; 1 mg/6 mm disc) | Inhibition zone (mm) ([5]; 10 mg/6 mm disc) | Inhibition zone (mm) ([6]; 0.1 mg/6 mm disc) | Inhibition zone (mm) ([6]; 1 mg/6 mm disc) | Inhibition zone (mm) ([6]; 10 mg/6 mm disc) | zone of inhibition at 3 mg/disc ([4]; Table 2, 3 mg/6 mm disk) | zone of inhibition at 10 mg/disc ([4]; Table 2, 10 mg/6 mm disk) | zone of inhibition at 30 mg/disc ([4]; Table 2, 30 mg/6 mm disk) | zone of inhibition at 100 mg/disc ([4]; Table 2, 100 mg/6 mm disk) | Inhibition zone (mm) ([7]; 0.1 mg/6 mm disc) | Inhibition zone (mm) ([7]; 1 mg/6 mm disc) | Inhibition zone (mm) ([7]; 10 mg/6 mm disc) | also measured
1 | CC[C@H]1OC(=O)C[C@@H](O)[C@H](C)[C@@H](O[C@@H]2O[C@H](C)C(O)C(N(C)C)C2O)[C@@H](CC=O)C[C@@H](C)C(=O)/C=C/C(C)=C/[C@@H]1Cn1cc(-c2ccc(-c3ccccc3)cc2)nn1 (some centres unmarked) [YT104, 23-(4-biphenyl-1H-1,2,3-triazol-1-yl)-23-Deoxy-5-O-mycaminosyltylonolide] | – | – | – | – | – | – | – | – | – | – | – | – | – | MIC ([1]; Actinobacillus pleuropneumoniae, pleuropneumoniae isolate 1): > 16 µg/mL; MICs ([1]; pleuropneumoniae isolate 2): >16 µg/mL; MICs ([1]; pleuropneumoniae isolate 3): >16 µg/mL; MICs ([1]; pleuropneumoniae isolate 4): >16 µg/mL; MICs ([1]; pleuropneumoniae isolate 5): >16 µg/mL; MICs ([1]; pleuropneumoniae isolate 6): >16 µg/mL; MIC ([2]; M. haemolytica isolate 1): 8 µg/mL (≈ 9.99 µM); MIC ([2]; M. haemolytica isolate 2): 4 µg/mL (≈ 4.99 µM); MIC ([2]; M. haemolytica isolate 3): 8 µg/mL (≈ 9.99 µM)
2 | CC[C@H]1OC(=O)C[C@@H](O)[C@H](C)[C@@H](O[C@@H]2O[C@H](C)[C@@H](O)[C@H](N(C)C)[C@H]2O)[C@@H](CCCl)C[C@@H](C)C(=O)/C=C/C(C)=C/[C@@H]1CO[C@@H]1O[C@H](C)[C@@H](O)[C@@H](OC)[C@H]1OC [YT8, 20-chloro-20-deoxodesmycosin] | – | – | – | – | – | – | – | – | – | – | – | – | – | Inhibition zone (mm) ([3]; Table 3, 30 mg/6 mm disk): 11.0 mm; Inhibition zone (mm) ([3]; Table 3, 100 mg/6 mm disk): 14.5 mm; Inhibition zone (mm) ([4]; Table 2, 10 mg/6 mm disk): 12.5 mm; Inhibition zone (mm) ([4]; Table 2, 30 mg/6 mm disk): 18.0 mm; Inhibition zone (mm) ([4]; Table 2, 100 mg/6 mm disk): 20.0 mm
3 | CC[C@H]1OC(=O)C[C@@H](O)[C@H](C)[C@@H](O[C@@H]2O[C@H](C)[C@@H](O)[C@H](N(C)C)[C@H]2O)[C@@H](CC=O)C[C@@H](C)C(=O)/C=C/C(C)=C/[C@@H]1CO [YT106, 5-O-mycaminosyltylonolide] | – | – | – | – | – | – | – | – | – | – | – | – | – | Inhibition zone (mm) ([3]; Table 5, 10 mg/6 mm disk): 9.0 mm; Inhibition zone (mm) ([3]; Table 5, 30 mg/6 mm disk): 13.0 mm; Inhibition zone (mm) ([3]; Table 5, 100 mg/6 mm disk): 17.0 mm; Inhibition zone (mm) ([4]; Table 4, 10 mg/6 mm disk): 8.5 mm; Inhibition zone (mm) ([4]; Table 4, 30 mg/6 mm disk): 12.5 mm; Inhibition zone (mm) ([4]; Table 4, 100 mg/6 mm disk): 15.0 mm
4 | CCC1OC(=O)CC(O)C(C)C(OC2OC(C)C(O)C(N(C)C)C2O)C(CC=O)CC(C)C(=O)C=CC(C)=CC1CN=[N+]=[N-] (centres unmarked) [YT107, 23-azido-23-deoxo-5-O-mycaminosyltylonolide] | – | – | – | – | – | – | – | – | – | – | – | – | – | Inhibition zone (mm) ([3]; Table 5, 30 mg/6 mm disk): 10.5 mm; Inhibition zone (mm) ([3]; Table 5, 100 mg/6 mm disk): 15.0 mm; Inhibition zone (mm) ([4]; Table 4, 3 mg/6 mm disk): 12.0 mm; Inhibition zone (mm) ([4]; Table 4, 10 mg/6 mm disk): 16.0 mm; Inhibition zone (mm) ([4]; Table 4, 30 mg/6 mm disk): 18.0 mm; Inhibition zone (mm) ([4]; Table 4, 100 mg/6 mm disk): 21.5 mm
5 | CC[C@H]1OC(=O)C[C@@H](O)[C@H](C)[C@@H](O[C@@H]2OC(C)[C@@H](O)C(N(C)C)C2O)[C@@H](CCn2cc(CCCCCl)nn2)C[C@@H](C)C(=O)/C=C/C(C)=C/[C@@H]1CO[C@@H]1OC(C)[C@@H](O)C(OC)C1OC (some centres unmarked) [YT19, 20-(4-(4-chlorobutyl)-1H-1,2,3-triazol-1-yl)-20-deoxodesmycosin] | 13 mm | 19 mm | 26 mm | 7 mm | 10.5 mm | 15 mm | 14 mm | 16 mm | 18 mm | 21 mm | 7 mm | 14.5 mm | 23 mm | –
6 | CC[C@H]1OC(=O)C[C@@H](O)[C@H](C)[C@@H](O[C@@H]2OC(C)[C@@H](O)C(N(C)C)C2O)[C@@H](CCn2cc(-c3ccccc3)nn2)C[C@@H](C)C(=O)/C=C/C(C)=C/[C@@H]1CO[C@@H]1OC(C)[C@@H](O)C(OC)C1OC (some centres unmarked) [YT13, 20-(4-phenyl-1H-1,2,3-triazol-1-yl)-20-deoxodesmycosin] | 15 mm | 21.5 mm | 27.5 mm | 9.5 mm | 12 mm | 15.5 mm | 15 mm | 16 mm | 18 mm | 21 mm | 8 mm | 17 mm | 23.5 mm | zone of inhibition at 1 mg/disc ([4]; Table 2): 11 mm
7 | CC[C@H]1OC(=O)C[C@@H](O)[C@H](C)[C@@H](O[C@@H]2O[C@H](C)[C@@H](O)[C@H](N(C)C)[C@H]2O)[C@@H](CC=O)C[C@@H](C)C(=O)/C=C/C(C)=C/[C@@H]1CO[C@@H]1O[C@H](C)[C@@H](O)[C@@H](OC)[C@H]1OC [YT6, Desmycosin] | – | – | – | – | – | – | – | – | – | – | – | – | – | Inhibition zone (mm) ([3]; Table 3, 3 mg/6 mm disk): 8.5 mm; Inhibition zone (mm) ([3]; Table 3, 10 mg/6 mm disk): 13.5 mm; Inhibition zone (mm) ([3]; Table 3, 30 mg/6 mm disk): 17.5 mm; Inhibition zone (mm) ([3]; Table 3, 100 mg/6 mm disk): 21.0 mm; Inhibition zone (mm) ([4]; Table 2, 30 mg/6 mm disk): 10.5 mm
8 | CC[C@H]1OC(=O)C[C@@H](O)[C@H](C)[C@@H](O[C@@H]2OC(C)[C@@H](O)C(N(C)C)C2O)[C@@H](CCn2cc(-c3ccc(N(C)C)cc3)nn2)C[C@@H](C)C(=O)/C=C/C(C)=C/[C@@H]1CO[C@@H]1OC(C)[C@@H](O)C(OC)C1OC (some centres unmarked) [YT29, 20-(4-(4-dimethylaminophenyl)-1H-1,2,3-triazol-1-yl)-20-deoxodesmycosin] | 11 mm | 19.5 mm | 25.5 mm | 7 mm | 10 mm | 15 mm | 13.5 mm | 16 mm | 17.5 mm | 20 mm | 7 mm | 15 mm | 24 mm | –
9 | CC[C@H]1OC(=O)C[C@@H](O)[C@H](C)[C@@H](O[C@@H]2OC(C)[C@@H](O)C(N(C)C)C2O)[C@@H](CCn2cc(-c3ccccn3)nn2)C[C@@H](C)C(=O)/C=C/C(C)=C/[C@@H]1CO[C@@H]1OC(C)[C@@H](O)C(OC)C1OC (some centres unmarked) [YT12, 20-(4-(pyridine-2-yl)-1H-1,2,3-triazol-1-yl)-20-deoxodesmycosin] | 12 mm | 18.5 mm | 25 mm | 7 mm | 12.5 mm | 14 mm | 13 mm | 17 mm | 19 mm | 22 mm | 7 mm | 12.5 mm | 27 mm | zone of inhibition at 1 mg/disc ([4]; Table 2): 9 mm
10 | CC[C@H]1OC(=O)C[C@@H](O)[C@H](C)[C@@H](O[C@@H]2OC(C)[C@@H](O)C(N(C)C)C2O)[C@@H](CCn2cc(-c3cccnc3)nn2)C[C@@H](C)C(=O)/C=C/C(C)=C/[C@@H]1CO[C@@H]1OC(C)[C@@H](O)C(OC)C1OC (some centres unmarked) [YT16, 20-(4-(pyridine-3-yl)-1H-1,2,3-triazol-1-yl)-20-deoxodesmycosin] | – | – | – | – | – | – | 11.5 mm | 14.5 mm | 16.5 mm | 19 mm | – | – | – | –
11 | CCCCCCCCCc1cn(CC[C@H]2C[C@@H](C)C(=O)/C=C/C(C)=C/[C@H](CO[C@@H]3OC(C)[C@@H](O)C(OC)C3OC)[C@@H](CC)OC(=O)C[C@@H](O)[C@H](C)[C@H]2O[C@@H]2OC(C)[C@@H](O)C(N(C)C)C2O)nn1 (some centres unmarked) [YT34, 20-(4-nonyl-1H-1,2,3-triazol-1-yl)-20-deoxodesmycosin] | – | – | – | – | – | – | 11 mm | 13 mm | 14 mm | 15 mm | – | – | – | –
12 | CCC1OC(=O)CC(O)C(C)C(OC2OC(C)C(O)C(N(C)C)C2O)C(CCN=[N+]=[N-])CC(C)C(=O)C=CC(C)=CC1COC1OC(C)C(O)C(OC)C1OC (centres unmarked) [YT11, 20-azido-20-deoxodesmycosin] | – | – | – | – | – | – | – | – | – | – | – | – | – | Inhibition zone (mm) ([3]; Table 3, 100 mg/6 mm disk): 11.0 mm; Inhibition zone (mm) ([4]; Table 2, 3 mg/6 mm disk): 10.0 mm; Inhibition zone (mm) ([4]; Table 2, 10 mg/6 mm disk): 13.0 mm; Inhibition zone (mm) ([4]; Table 2, 30 mg/6 mm disk): 16.0 mm; Inhibition zone (mm) ([4]; Table 2, 100 mg/6 mm disk): 18.0 mm
